Experimental data from patent US12692302B2, “Uses of IL-13 antagonists for treating atopic dermatitis” (Genentech, Inc., priority 2016, dated 2026).

Tested on: patients with persistent moderate to severe atopic dermatitis inadequately controlled by TCS
Assay: Clinical Study I (phase II, lebrikizumab + TCS vs placebo + TCS): efficacy outcomes
Format: in vivo, human
Details: for Change from baseline Pruritus VAS, mean % change / Change from baseline Pruritus VAS, placebo-corrected differences / Change from baseline in EASI, mean % change / Change from baseline in EASI, placebo-corrected differences / Patients maintaining EASI-50 response at Weeks 12 and 20, % / Patients maintaining EASI-50 response at Weeks 12 and 20, placebo-corrected differences / Patients maintaining EASI-75 response at Weeks 12 and 20, % / Patients maintaining EASI-75 response at Weeks 12 and 20, placebo-corrected differences / Patients maintaining IGA 0/1 response at Weeks 12 and 20, % / Patients maintaining IGA 0/1 response at Weeks 12 and 20, placebo-corrected differences / Patients maintaining SCORAD-50 response at Weeks 12 and 20, % / Patients maintaining SCORAD-50 response at Weeks 12 and 20, placebo-corrected differences: Week 20
Protocol: Clinical Study I was a phase II, randomized, double-blind, placebo-controlled study to evaluate the safety and efficacy of lebrikizumab in patients (age 18-75) with persistent moderate to severe atopic dermatitis that is inadequately controlled by topical corticosteroids (TCS). In this Study, lebrikizumab was tested in combination with TCS.
The inclusion criteria included the following: age 18 to 75 years; AD diagnosed by the Hanifin/Rajka criteria and that had been present for at least 1 year at screening; moderate to severe AD as graded by the Rajka/Langeland criteria at screening; history of inadequate response to a 1 month (within the 3 months prior to the screening visit) treatment regimen of at least daily TCS and regular emollient for treatment of AD; EASI score 14 at screening and end of the run-in period (Visit 3), IGA score 3 (5-point scale) at screening and end of the run-in period (Visit 3); AD involvement of 10% body surface area (BSA) at screening; and Pruritus VAS score (measured as part of the SCORAD) of 3 at screening.
Run-in Period. Following the screening visit, eligible patients entered a 2-week run-in period (Days −14 to −1) during which a protocol-specified topical therapy regimen was initiated. On the first day of the run-in period (Day −14) patients received TCS for use throughout the run-in period. Patients were required to apply the following topical therapy regimen daily: emollient to all xerotic skin surfaces, at least once daily; TCS cream consisting of medium potency TCS (triamcinolone acetonide 0.1%), two times per day, only to all active skin lesions.
Treatment Period. […] The plan was to randomize approximately 200 patients (1:1:1:1) to one of the following four treatment groups (see FIG. 1): (1) Group 1: lebrikizumab 250 mg administered subcutaneously (SC) single dose (Day 1) followed by 2 placebo doses (at Week 4 and at Week 8) for a total of 3 doses+TCS cream; (2) Group 2: lebrikizumab 125 mg SC single dose (Day 1) followed by 2 placebo doses (Week 4 and Week 8) for a total of 3 doses+TCS cream; (3) Group 3: lebrikizumab 125 mg SC every 4 weeks (Q4W) for a total of 3 doses+TCS cream; and (4) Group 4: placebo SC Q4W for a total of 3 doses+TCS cream. Three active doses were included to characterize both exposure-response relationships and dosing frequency requirements.
Patients randomized to these four study treatment groups received study drug (lebrikizumab or placebo SC) in combination with TCS. Throughout the 12-week treatment period these patients continued to apply emollient at least once daily and triamcinolone acetonide 0.1% cream as described in the run-in period (two times per day to all active skin lesions on the body). […] Patients recorded their use of topical creams and responded to PRO-related questions using a hand held eDiary throughout the treatment period. At each study visit the patient was required to bring their TCS containers to the study site to be weighed.
Efficacy Outcome Measures. The primary efficacy outcome measure was the percentage of patients achieving EASI-50 (a 50% reduction in EASI score from baseline) at Week 12. […]

[1] = 125 mg Q4W + TCS BID (n = 51), Week 12
[2] = 125 mg Q4W + TCS BID (n = 51), Week 12, listed as Lebri
[3] = 125 mg once every four weeks + TCS, Week 12, post hoc analysis
[4] = 125 mg single dose + TCS BID (n = 52), Week 12

lebrikizumab: monoclonal humanized anti-IL-13 IgG4 antibody; heavy chain SEQ ID NO: 11, light chain SEQ ID NO: 12; formulated at 125 mg/mL in prefilled syringe
% Patients achieving EASI-50 [1]: 82.4% | % Patients achieving EASI-50, placebo-corrected changes [1]: 20.1% | % Patients achieving EASI-75 [1]: 54.9% | % Patients achieving EASI-75, placebo-corrected changes [1]: 20.9% | % Patients achieving IGA 0/1 [1]: (33.3) % | % Patients achieving IGA 0/1, placebo-corrected change [1]: 14.5% | % Patients achieving SCORAD-50 [1]: 51.0% | % Patients achieving SCORAD-50, placebo-corrected change [1]: 24.6% | % Patients achieving SCORAD-75 [1]: (21.6) % | % change from baseline in AD Specific health-related QoL - ADIQ, mean [1]: −54.3% | % change from baseline in ADIQ, placebo-corrected change [1]: −25.3% | % change from baseline in Pruritus VAS (from SCORAD), mean [1]: −40.71% | % change from baseline in Pruritus VAS (from SCORAD), placebo-corrected change [1]: −13.7% | % change from baseline in Sleep Loss VAS (from SCORAD), mean [1]: −53.6% | % change from baseline in Sleep Loss VAS (from SCORAD), placebo-corrected change [1]: −31.0% | DLQI, % change from baseline, adjusted mean [1]: −43.12% | DLQI, % change from baseline, Δ vs placebo [1]: −9.55% | SCORAD score % change from baseline, adjusted mean [1]: −53.5% | SCORAD score % change from baseline, Δ vs placebo [1]: −18.0% | Total % BSA affected, % change from baseline, adjusted mean [1]: −57.7% | Total % BSA affected, % change from baseline, Δ vs placebo [1]: −10.3% | % Patients achieving EASI-50 [2]: (82.4) % | % Patients achieving EASI-75 [2]: (54.9) % | % Patients achieving SCORAD-50 [2]: (51.0) % | reduction in BSA affected (125 mg Q4W + TCS, Week 12): 57.7% | Change from baseline Pruritus VAS, mean % change (125 mg Q4W + TCS): −35.23% | Change from baseline Pruritus VAS, placebo-corrected differences (125 mg Q4W + TCS): −13.76% | Change from baseline in EASI, mean % change (125 mg Q4W + TCS): −71.1% | Change from baseline in EASI, placebo-corrected differences (125 mg Q4W + TCS): −17.08% | Patients maintaining EASI-50 response at Weeks 12 and 20, % (125 mg Q4W + TCS): (90.5) % | Patients maintaining EASI-50 response at Weeks 12 and 20, placebo-corrected differences (125 mg Q4W + TCS): 17.75% | Patients maintaining EASI-75 response at Weeks 12 and 20, % (125 mg Q4W + TCS): (75.0) % | Patients maintaining EASI-75 response at Weeks 12 and 20, placebo-corrected differences (125 mg Q4W + TCS): 8.33% | Patients maintaining IGA 0/1 response at Weeks 12 and 20, % (125 mg Q4W + TCS): (70.6) % | Patients maintaining IGA 0/1 response at Weeks 12 and 20, placebo-corrected differences (125 mg Q4W + TCS): 10.59% | Patients maintaining SCORAD-50 response at Weeks 12 and 20, % (125 mg Q4W + TCS): (50.0) % | Patients maintaining SCORAD-50 response at Weeks 12 and 20, placebo-corrected differences (125 mg Q4W + TCS): −28.60% | Change from baseline Pruritus VAS, mean % change (125 mg SD + TCS): −27.59% | Change from baseline Pruritus VAS, placebo-corrected differences (125 mg SD + TCS): −6.13% | Change from baseline in EASI, mean % change (125 mg SD + TCS): −62.1% | Change from baseline in EASI, placebo-corrected differences (125 mg SD + TCS): −8.08% | Patients maintaining EASI-50 response at Weeks 12 and 20, % (125 mg SD + TCS): (80.6) % | Patients maintaining EASI-50 response at Weeks 12 and 20, placebo-corrected differences (125 mg SD + TCS): 7.83% | Patients maintaining EASI-75 response at Weeks 12 and 20, % (125 mg SD + TCS): (45.0) % | Patients maintaining EASI-75 response at Weeks 12 and 20, placebo-corrected differences (125 mg SD + TCS): −21.70% | Patients maintaining IGA 0/1 response at Weeks 12 and 20, % (125 mg SD + TCS): (54.5) % | Patients maintaining IGA 0/1 response at Weeks 12 and 20, placebo-corrected differences (125 mg SD + TCS): −5.45% | Patients maintaining SCORAD-50 response at Weeks 12 and 20, % (125 mg SD + TCS): (61.1) % | Patients maintaining SCORAD-50 response at Weeks 12 and 20, placebo-corrected differences (125 mg SD + TCS): −17.50% | ADIQ reduction from screening [3]: 64.7% | Pruritus VAS reduction from screening [3]: 55.2% | Sleep Loss VAS reduction from screening [3]: 61.5% | placebo corrected change in EASI (difference between lebrikizumab treatment and placebo) (125 mg once every four weeks for 12 weeks + TCS, P=0.025): 17.4% | % change (decrease) from baseline in EASI (125 mg once every four weeks for 12 weeks + TCS, modified intention-to-treat population): 70.5% | % Patients achieving EASI-50 [4]: (69.2) % | % Patients achieving EASI-50, placebo-corrected changes [4]: 7.0% | % Patients achieving EASI-75 [4]: (38.5) % | % Patients achieving EASI-75, placebo-corrected changes [4]: 4.5% | % Patients achieving IGA 0/1 [4]: (21.2) % | % Patients achieving IGA 0/1, placebo-corrected change [4]: 2.3% | % Patients achieving SCORAD-50 [4]: (34.6) % | % Patients achieving SCORAD-50, placebo-corrected change [4]: 8.2% | % Patients achieving SCORAD-75 [4]: (13.5) % | % change from baseline in AD Specific health-related QoL - ADIQ, mean [4]: −33.9%
